Measured values: patent US12624004B2 (Fudan University, priority 2019, dated 2026)

Test system: Female mice
Experiment: In vivo hot plate method analgesia test
Summary of the method: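 Female mice (~20 g) on a 55° C hot plate, hindpaw response latency as pain threshold (pre-screen 5–30 s, 60 s cut-off). Latencies at 15, 30, 60 and 120 min after intraperitoneal dosing. %MPE = (post−pre latency)/(60−pre)×100, ED50 derived from %MPE.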

COc1cccc(C2(O)CCCCC2CN(C)C)c1 (stereo not shown) [Tramadol, reference compound]
analgesic effect (Table 1-2, hot plate, 5 mg/kg dose): no analgesic effect | Maximum percentage effective analgesic (% MPE) (Table 1-2, hot plate, 50 mg/kg dose): 64.5% | analgesic effect (Table 2-2, hot plate, at 5 mg/kg or 50 mg/kg dose): no analgesic effect | % MPE (Table 2-2, hot plate, tramadol, dose of this value not clearly printed): 64.5% | analgesic effect (Table 3-2, hot plate, @10 mg/kg): no effective | % MPE (Table 3-2, hot plate, @50 mg/kg): 64.5% | analgesic effect (Table 4-2, hot plate, 10 mg/kg dose): no analgesic effect | % MPE (Table 4-2, hot plate, 50 mg/kg dose): 64.5% | analgesic effect (Table 5-2, hot plate, 10 mg/kg dose): no analgesic effect | Maximum percentage effective analgesia (% MPE) (Table 5-2, hot plate, 50 mg/kg dose): 64.5%
